Results: patent US10117890B2, “Methods and compositions for treating pain” (Academia Sinica, priority 2012, dated 2018)
“Also recorded” adds a separate entry of the source.

Key:
ASIC3 = test: Whole-cell patch clamp of acid-induced current in CHO cells transfected with ASIC3; format: cell-based
ICS-induced pain = test: Intermittent cold stress (ICS) mouse model of fibromyalgia, von Frey test; format: in vivo, mice
Protocol: Mechanical hyperalgesia was assessed by applying a 0.2 mN von Frey filament to the plantar surface of both hind paws. For each paw, the filament was applied for 5 times at 30-s intervals.
To induce fibromyalgia-like symptoms, mice were treated with intermittent cold stress, which produces long-lasting (more than 2 weeks) thermal hyperalgesia and mechanical allodynia, predominantly in females. Method: Mice were placed on stainless mesh plate in a cold room at 4° C. overnight (from 4:30 pm to 10:00 am), followed by intermittent cold stress with environment temperatures alternating between 24 and 4° C. every 30 min, from 10:00 am to 4:30 pm. These procedures were repeated twice. On day 3, the mice were adapted to 24 C for 1 h before behavioral testing.
The second fibromyalgia model is developed by Ueda's group, in which mice were treated with intermittent cold stress for 2 days (Nishiyori & Ueda, 2008). Mice treated with intermittent cold stress will develop long-lasting (>2 weeks) mechanical and thermal hyperalgesia. Analgesic effect of T1-11 was tested in these mice 5 day after intermittent cold stress (ICS). […] Moreover, we found T1-11 and substance P have synergistic effect in treating the ICS-induced pain.

[1] = system: acid(ASIC3)-induced chronic muscle pain; test: Acid-induced chronic muscle pain model (repeated intramuscular acid injection, von Frey test); format: in vivo, mice; conditions: T1-11 4 pmole, co-injected with acid saline pH 4.0 into gastrocnemius muscle
Text: Adult (8- to 12-wk-old) C57/BL6 mice were used. All procedures followed the Guide for the Use of Laboratory Animals (National Academy Press, Washington D.C., USA) and were approved by the Institutional Animal Care and Use Committee of Academia Sinica. We aimed to minimize the number of animals used and their suffering without compromising the quality of the experiments. The generation and genotyping of Tac1^−/− mice and Asic3^−/− mice were as described. Both null mutant mice were backcrossed to C57/BL6 for 10 generations to establish a congenic strain. Congenic Tac1^−/− Asic3^−/− mice were offspring of Tacl^+/− and Asic3^+/− intercrosses.
Mice received an intramuscular acid injection in the gastrocnemius muscle (GM) containing 20 μl acid saline (pH 4.0) with or without (Sar^9, Met(O2)^11)-substance P (SP; 4, 10, or 40 μM) or 100 μM RP67580 or 200 μM XE991. Mechanical hyperalgesia was assessed by applying a 0.2-mN von Frey filament to the plantar surface of both hind paws of mice. Mice were acclimatized in an acrylic cubicle for 60 min before testing. A positive response was defined as the foot lifting when the von Frey filament was applied. For each paw, the filament was applied 5 times at 30-sec intervals. Responses of the paw to mechanical stimuli were measured before injection and at 4 and 24 hr and 5 days after the first acid injection (day 0) and at 4, 24, and 72 hr and 1 week after the second acid injection (day 5). For single-injection experiments, responses to mechanical stimuli were measured before the injection, at 4 hr and at 1, 3, 5, 7, 9, 11, 13, 15 and 22 days after the injection or at 4, 24, 48 hr and 7 and 14 days after the injection. NK1-selective agonist ((Sar^9, Met(O2)^11)—SP) was from Sigma Chemical (St. Louis, Mo.). NK1-selective antagonist (RP67580) and XE991 were from Tocris (Avonmouth, UK). The experimenters were blinded to the experimental manipulations. The person who conducted von Frey test had no information of the mouse genotypes or drug injections.

Question: Which results are given for `OC[C@H]1O[C@@H](n2cnc3c(NCc4ccc(O)cc4)ncnc32)[C@H](O)[C@@H]1O` [T1-11, N^6-(4-hydroxybenzyl)adenosine]?
Answer: acid-induced current in CHO cells transfected with ASIC3 (ASIC3): blocked; analgesic effect on ICS-treated mice, T1-11 alone (ICS-induced pain; T1-11 3 μg/kg alone): did not show analgesic effect; analgesic effect on ICS-treated mice, combination (ICS-induced pain; T1-11 3 μg/kg combined with 0.6 mg/kg SM-substance P): showed analgesic effect; analgesic effect on mice treated with ICS (ICS-induced pain; T1-11 30 ug/kg): had analgesic effect; therapeutic dose to treat the ICS-induced pain (ICS-induced pain; i.p., 5 day after ICS): 0.03 mg/kg; acid-induced hyperalgesia, co-injection of acid and T1-11 [1]: abolished the transient hyperalgesia and prevented the development of chronic hyperalgesia; also recorded: still had analgesic effects
